Assay results: patent US6180622A, “Imidazo[5,1-b]thiazol-3-yl carbapenem antimicrobials” (priority 1996, dated 2001)
Values after ≈ are worked out from the molar mass of the structure shown.

Key:
Test in all cases: Antimicrobial activity (minimum inhibitory concentration)
Assay type in all cases: cell-based
S. aureus 209P JC-1 = settings: Staphylococcus aureus
Protocol: (§1) For representative compounds among the novel carbapenem derivatives of the present invention, the minimum inhibitory concentration (MIC, μg/ml) against various pathogenic bacteria was measured in accordance with a method described in CHEMOTHERAPY, Vol. 16, No. 1, 99 (1968).

P. vulgaris GN76 = settings: Proteus vulgaris; P. vulgaris GN76; read-out: MIC
Protocol: as §1

Ps. aeruginosa GN10362 = settings: Pseudomonas aeruginosa; Ps. aeruginosa GN10362; read-out: MIC
Protocol: as §1

M. morganii 1510 = settings: Morganella morganii
Protocol: as §1

E. cloacae G-0008 = settings: Enterobacter cloacae, G0008
Protocol: as §1

K. pneumoniae PCI602 = settings: Klebsiella pneumoniae
Protocol: as §1

E. coli NIHJ JC-2 = settings: Escherichia coli, NIHJJC2
Protocol: as §1

S. marcescens No. 1 = settings: Serratia marcescens
Protocol: as §1

C. freundii GN346 = settings: Citrobacter freundii
Protocol: as §1

E. coli GN206 = settings: Escherichia coli
Protocol: as §1

S. aureus M126 = settings: Staphylococcus aureus; S. aureus M126, highly meticillin-resistant strain
Protocol: as §1

Row | Structure (SMILES) | MIC (S. aureus 209P JC-1) [µg/mL] | MIC (P. vulgaris GN76) [µg/mL] | MIC (Ps. aeruginosa GN10362) [µg/mL] | MIC (M. morganii 1510) [µg/mL] | MIC (E. cloacae G-0008) [µg/mL] | MIC (K. pneumoniae PCI602) [µg/mL] | MIC (E. coli NIHJ JC-2) [µg/mL] | MIC (S. marcescens No. 1) [µg/mL] | MIC (C. freundii GN346) [µg/mL] | MIC (E. coli GN206) [µg/mL] | MIC (S. aureus M126) [µg/mL]
1 | C[C@@H](O)[C@H]1C(=O)N2C(C(=O)O)=C(S[C@@H]3CN[C@H](/C=C\c4cn5c[n+](CC(N)=O)cc5s4)C3)[C@H](C)[C@H]12 [Ex. 53B, (1R,5S,6S)-2-[(3S,5S)-5-[2(Z)-(6-(carbamoylmethyl)imidazo[5,1-b]thiazolium-2-yl)ethenyl]pyrrolidin-3-yl]thio-6-((1R)-1-hydroxyethyl)-1-methylcarbapen-2-em-3-carboxylic acid iodide] | < 0.025 | 0.39 | 0.78 | 0.2 | 0.05 | 0.05 | 0.05 | 0.1 | 0.05 | 0.05 | 3.13
2 | C[C@@H](O)[C@H]1C(=O)N2C(C(=O)O)=C(S[C@@H]3CN[C@H](C(O)c4csc5cncn45)C3)[C@H](C)[C@H]12 (single isomer, unassigned) [Ex. 6] | < 0.025 | 0.78 (≈ 1.68 µM) | 1.56 (≈ 3.36 µM) | 0.39 (≈ 0.839 µM) | 0.1 (≈ 0.215 µM) | 0.1 (≈ 0.215 µM) | 0.05 (≈ 0.108 µM) | 0.2 (≈ 0.431 µM) | 0.1 (≈ 0.215 µM) | 0.1 (≈ 0.215 µM) | 6.25 (≈ 13.5 µM)
3 | C[C@@H](O)[C@H]1C(=O)N2C(C(=O)O)=C(S[C@@H]3CN[C@H](/C=C\c4cn5c[n+](CCC(N)=O)cc5s4)C3)[C@H](C)[C@H]12 [Ex. 76, (1R,5S,6S)-2-[(3S,5S)-5-[2(Z)-(6-(2-Carbamoylethyl)imidazo[5,1-b]thiazolium-2-yl)ethenyl]pyrrolidin-3-yl]thio-6-((1R)-1-hydroxyethyl)-1-methylcarbapen-2-em-3-carboxylic acid chloride] | < 0.025 | 0.39 | 0.78 | 0.2 | 0.05 | 0.1 | 0.05 | 0.2 | 0.1 | 0.1 | 6.25
4 | C[C@@H](O)[C@H]1C(=O)N2C(C(=O)O)=C(S[C@@H]3CN[C@H](C(O)c4cn5c[n+](C)cc5s4)C3)[C@H](C)[C@H]12 (single isomer, unassigned) [Ex. 18] | < 0.025 | 0.39 | 3.13 | 0.2 | 0.05 | 0.1 | 0.05 | 0.1 | 0.2 | 0.05 | 12.5
5 | C[C@@H](O)[C@H]1C(=O)N2C(C(=O)O)=C(S[C@@H]3CN[C@H](/C=C\c4csc5c[n+](CC(N)=O)cn45)C3)[C@H](C)[C@H]12 [Ex. 54] | < 0.025 | 0.39 | 1.56 | 0.2 | < 0.025 | 0.05 | < 0.025 | 0.1 | 0.05 | 0.05 | 3.13
6 | C[C@@H](O)[C@H]1C(=O)N2C(C(=O)O)=C(S[C@@H]3CN[C@H](/C=C/c4cn5c[n+](CC(N)=O)cc5s4)C3)[C@H](C)[C@H]12 [Ex. 53A] | 0.05 | 0.78 | 0.78 | 0.39 | 0.1 | 0.1 | 0.05 | 0.1 | 0.1 | 0.1 | 12.5
7 | Cc1n2cc(C[C@@H]3C[C@H](SC4=C(C(=O)O)N5C(=O)[C@H]([C@@H](C)O)[C@H]5[C@H]4C)CN3)sc2c[n+]1CCC(N)=O [Ex. 67, (1R,5S,6S)-2-[(3S,5S)-5-(6-(2-Carbamoylethyl)-5-methylimidazo[5,1-b]thiazolium-2-yl)methylpyrrolidin-3-yl]thio-6-((1R)-1-hydroxyethyl)-1-methylcarbapen-2-em-3-carboxylic acid chloride] | < 0.025 | 0.78 | 0.78 | 0.39 | 0.05 | 0.1 | 0.05 | 0.39 | 0.05 | 0.1 | 12.5
8 | C[C@@H](O)[C@H]1C(=O)N2C(C(=O)[O-])=C(S[C@@H]3CN[C@H](/C=C\c4csc5c[n+](CCC(N)=O)cn45)C3)[C@H](C)[C@H]12 [Ex. 72, (1R,5S,6S)-2-[(3S,5S)-5-[2(Z)-(6-(2-Carbamoylethyl)imidazo[5,1-b]thiazolium-3-yl)ethenyl]pyrrolidin-3-yl]thio-6-((1R)-1-hydroxyethyl)-1-methylcarbapen-2-em-3-carboxylate] | < 0.025 | 0.78 (≈ 1.47 µM) | 1.56 (≈ 2.93 µM) | 0.39 (≈ 0.734 µM) | 0.05 (≈ 0.094 µM) | 0.1 (≈ 0.188 µM) | 0.05 (≈ 0.094 µM) | 0.1 (≈ 0.188 µM) | 0.1 (≈ 0.188 µM) | 0.1 (≈ 0.188 µM) | 6.25 (≈ 11.8 µM)
9 | C[C@@H](O)[C@H]1C(=O)N2C(C(=O)O)=C(S[C@@H]3CN[C@H](/C=C\c4csc5c[n+](C)cn45)C3)[C@H](C)[C@H]12 [Ex. 39, (1R,5S,6S)-6-((1R)-1-Hydroxyethyl)-1-methyl-2-[(3S,5S)-5-[2(Z)-(6-methylimidazo[5,1-b]thiazolium-3-yl)ethenyl]pyrrolidin-3-yl]thiocarbapen-2-em-3-carboxylic acid chloride] | < 0.025 | 0.39 | 6.25 | 0.2 | 0.05 | 0.05 | < 0.025 | 0.05 | 0.1 | < 0.025 | 6.25
10 | C[C@@H](O)[C@H]1C(=O)N2C(C(=O)O)=C(S[C@@H]3CN[C@H](C(=O)NCc4n5ccsc5c[n+]4C)C3)[C@H](C)[C@H]12 [Ex. 2, (1R,5S,6S)-6-((1R)-1-Hydroxyethyl)-1-methyl-2-[(3S,5S)-5-[(6-methylimidazo[5,1-b]thiazolium-5-yl)methylaminocarbonyl]pyrrolidin-3-yl]thiocarbapen-2-em-3-carboxylic acid chloride] | < 0.025 | 1.56 | 12.5 | 0.39 | 0.1 | 0.1 | 0.1 | 0.2 | 0.2 | 0.05 | 6.25
11 | C[C@@H](O)[C@H]1C(=O)N2C(C(=O)O)=C(S[C@@H]3CN[C@H](c4csc5c[n+](C)cn45)C3)[C@H](C)[C@H]12 [Ex. 50, (1R,5S,6S)-6-((1R)-1-Hydroxyethyl)-1-methyl-2-[(3S,5S)-5-[(6-methylimidazo[5,1-b]thiazolium)-3-yl]pyrrolidin-3-yl]thiocarbapen-2-em-3-carboxylic acid chloride] | 0.05 | 0.78 | 0.78 | 0.39 | 0.05 | 0.1 | 0.05 | 0.1 | 0.1 | 0.05 | 12.5
12 | C[C@@H](O)[C@H]1C(=O)N2C(C(=O)O)=C(S[C@@H]3CN[C@H](/C=C\c4csc5cncn45)C3)[C@H](C)[C@H]12 [Ex. 38, (1R,5S,6S)-6-((1R)-1-Hydroxyethyl)-2-[(3S,5S)-5-[2(Z)-(imidazo[5,1-b]thiazol-3-yl)ethenyl]pyrrolidin-3-yl]thio-1-methylcarbapen-2-em-3-carboxylic acid] | 0.1 (≈ 0.217 µM) | 1.56 (≈ 3.39 µM) | 6.25 (≈ 13.6 µM) | 0.78 (≈ 1.69 µM) | 0.1 (≈ 0.217 µM) | 0.2 (≈ 0.434 µM) | 0.1 (≈ 0.217 µM) | 0.2 (≈ 0.434 µM) | 0.2 (≈ 0.434 µM) | 0.1 (≈ 0.217 µM) | 25 (≈ 54.3 µM)
